# Earlier results, collected in paper PMC5911155 (Nature chemistry, 2018).
# System: Aβ42 monomers
# Conditions: ref [7], [42]
substance,measurement,value
"Aβ40: fibrils constructed from other proteins and peptides, including Aβ40",ability of fibrils to catalyse nucleation of Aβ42 monomers,not able to efficiently catalyse nucleation of Aβ42 monomers
